Data as given in ChEMBL document CHEMBL1134400, “Short peptides with induced beta-turn inhibit the interaction between HIV-1 gp120 and CD4” (J Med Chem, 2001).
Residues, ends and D or L forms follow the SMILES beside them.

test system: Human immunodeficiency virus 1; experiment: Inhibitory activity against interaction between HIV-1 gp120 and CD4; format: functional

Compound | IC50
H-PSFDLQ-OH | 6 µM
H-ARQPSFDLQCGF-OH | 50 µM
CC(C)C[C@H](NC(=O)[C@H](CC(=O)O)NC(=O)[C@H](Cc1ccccc1)NC(=O)[C@H](CO)NC(=O)[C@@H]1CCCN1C(=O)[C@H](CCC(N)=O)NC(=O)[C@@H](N)CS)C(=O)N[C@@H](CCC(N)=O)C(=O)N[C@@H](CS)C(=O)O (H-CQPSFDLQC-OH) | 1 µM
